Measured values: patent US20200407398A1, “Short Proline-Rich Lipopeptide Potentiates Minocycline and Rifampicin Against Multidrug-and Extensively Drug-Resistant Pseudomonas Aeruginosa” (priority 2018, published 2020)
Peptide text beside a SMILES is read from it. * marks the point of attachment. Palmitoyl = CCCCCCCCCCCCCCCC(=O)*

Key:
Gram-positive bacteria = assay: Microbroth dilution MIC, range over panel; type: cell-based; settings: against Gram-positive bacteria of the panel
Description: (§1) The synthesized SPRLPs were evaluated for their antibacterial potency against a panel of Gram-positive and Gram-negative bacteria (Tables 2 & 3). Some of the included pathogens were collected from patients visiting or admitted to participating Canadian hospitals through the CAN-ICU (27) and CANWARD (28) national surveillance studies. Antibacterial activity was assessed using minimum inhibitory concentration (MIC) against various clinical pathogens.
(§2) Microbroth dilution susceptibility test following the Clinical and Laboratory Standards Institute (CLSI) guidelines (32) was performed to assess the in vitro antibacterial activity of SPRLPs. Overnight grown bacterial cultures were diluted in saline to achieve a 0.5 McFarland turbidity, followed by 1:50 dilution in Mueller-Hinton broth (MHB) for inoculation to a final concentration of 5×10^5 colony forming units/mL. The assay was done on a 96-well plate to which the agents of interest were 2-fold serially diluted in MHB and incubated with equal volumes of inoculum at 37° C. for 18 hours. MIC was determined as the lowest concentration to inhibit visible bacterial growth in form of turbidity, which was confirmed using EMax Plus microplate reader (Molecular Devices, USA) at a wavelength of 590 nm. The well containing MHB broth with or without bacterial cells was used as positive or negative control, respectively.

S. aureus ATCC 29213 = type: cell-based
Procedure, shortened: (§3)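 CLSI broth microdilution with 2-fold serial dilutions in Mueller-Hinton broth, inoculum 5×10^5 CFU/mL, incubated 18 hours at 37° C. MIC taken as lowest concentration with no visible turbidity, confirmed by absorbance at 590 nm.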

[1] = system: E. coli CANWARD-2011 97615 (gentamicin-, tobramycin-, ciprofloxacin-resistant) aac(3′)iia; type: cell-based
Procedure, shortened: as §3

E. coli ATCC 25922 = type: cell-based
Procedure, shortened: as §3

K. pneumoniae ATCC 13883 = type: cell-based
Procedure, shortened: as §3

[2] = system: S. maltophilia CAN-ICU 62584; type: cell-based
Procedure, shortened: as §3

[3] = system: A. baumannii CAN-ICU 63169; type: cell-based
Procedure, shortened: as §3

[4] = system: P. aeruginosa wild-type PAO1; type: cell-based
Procedure, shortened: as §3

[5] = system: P. aeruginosa CANWARD-2011 96846 (gentamicin-, tobramycin-resistant); type: cell-based
Procedure, shortened: as §3

[6] = system: methicillin-resistant S. aureus ATCC 33592; type: cell-based
Procedure, shortened: as §3

P. aeruginosa ATCC 27853 = type: cell-based
Procedure, shortened: as §3

[7] = system: P. aeruginosa CAN-ICU 62308 (gentamicin-resistant); type: cell-based
Procedure, shortened: as §3

[8] = system: methicillin-susceptible Staphylococcus epidermidis CANWARD-2008 81388; type: cell-based; settings: methicillin-susceptible CANWARD-2008 81388
Procedure, shortened: as §3

E. faecalis ATCC 29212 = type: cell-based
Procedure, shortened: as §3

E. faecium ATCC 27270 = type: cell-based
Procedure, shortened: as §3

[9] = system: E. coli CAN-ICU 61714 (gentamicin-resistant); type: cell-based
Procedure, shortened: as §3

[10] = system: methicillin-resistant S. epidermidis CAN-ICU 61589 (ceftazidime-resistant); type: cell-based; settings: methicillin-resistant CAN-ICU 61589 (ceftazidime-resistant)
Procedure, shortened: as §3

[11] = system: E. coli CAN-ICU 63074 (amikacin-intermediate resistant); type: cell-based
Procedure, shortened: as §3

[12] = system: Gram-negative bacteria E. coli; assay: Microbroth dilution MIC, range over strains; type: cell-based; settings: against the E. coli strains of the panel
Description: as §1, §2

[13] = system: wild-type and MDR/XDR P. aeruginosa clinical isolates; settings: checkerboard assay; P. aeruginosa
Description: We evaluated the activity of SPRLPs in combination with fifteen clinically-used antibiotics against P. aeruginosa. Antibiotics tested included fluoroquinolones (moxifloxacin, ciprofloxacin and levofloxacin), aminoglycosides (gentamicin, tobramycin and amikacin), cephalosporins (ceftazidime and cefotaxime), carbapenems (meropenem and doripenem), aztreonam, rifampicin, minocycline, colistin and fosfomycin. The SPRLPs were screened initially at a fixed concentration of 8 μg/mL (5 μM) in combination with antibiotics against wild-type P. aeruginosa PAO1. We assessed potentiation by at least a four-fold absolute MIC reduction of the antibiotic, after which synergism was further validated by a conventional checkerboard assay. A fractional inhibitory concentration (FIC) index of ≤0.5, 0.5<x≤4 or >4 was interpreted as synergistic, indifferent or antagonistic interaction, respectively (31). FIC index was obtained by adding the FIC values of the antibiotic and the SPRLP adjuvant. FIC of antibiotics was calculated by dividing the MIC of the antibiotic in the presence of the adjuvant by the MIC of the antibiotic alone. Similarly, the FIC of adjuvant was calculated via dividing the MIC of the adjuvant in the presence of the antibiotic by the MIC of the adjuvant alone.
Isolates used in this study were either obtained from the American Type Culture Collection (ATCC), the Canadian National Intensive Care Unit (CAN-ICU) surveillance study (27) or the Canadian Ward Surveillance (CANWARD) study (28). Clinical isolates belonging to the CAN-ICU and CANWARD studies were recovered from patients suffering a presumed infectious disease entering or admitted in a participating medical center across Canada during the time of study. MDR P. aeruginosa strains in this study refer to those that are resistant to aminoglycosides, fluoroquinolones, cephalosporins, and carbapenems while XDR strains are those that are resistant to aminoglycosides, fluoroquinolones, cephalosporins, carbapenems, aztreonam and penicillin+β-lactamase inhibitor combination (39, 40).
as §2
The assay was performed on a 96-well plate, to which the agents of interest was 2-fold serially diluted in working MHB. Prior to serial dilution, SPRLP was added to the working MHB media so that a fixed final concentration of 8 μg/mL (5 μM) SPRLP per well was achieved. To ensure that the assay was working, the MIC determination test of the studied antibiotic (without SPRLP) was included on the same plate. Similar MIC results between the assay comparator and an independent MIC determination test (on a different plate) ensured validity of the synergy test. Overnight grown bacterial cultures were diluted in saline to 0.5 McFarland turbidity, followed by 1:50 dilution in MHB (without SPRLP) and inoculation into each well to a final concentration of approximately 5×10^5 colony forming units/mL. Wells containing only MHB (without SPRLP) with or without bacterial cells were used as positive or negative control, respectively.

pig erythrocytes = type: cell-based
Procedure, shortened: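 Washed pig erythrocytes in PBS were mixed with 2-fold serial dilutions of peptide and incubated for 1 h at 37° C. Released hemoglobin in the supernatant was read at 570 nm, with PBS and 0.1% Triton X-100 as controls. MHC was the minimum concentration giving 5% hemolysis.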

[14] = system: human liver carcinoma HepG2 cells; type: cell-based; settings: read-out: IC50, inhibition of proliferation
Description: The CyQuant Direct cell proliferation assay kit (ThermoFisher, Canada) was used to assess the effect of C12-PRP on cell proliferation according to the manufacturer's protocol. Briefly, human embryonic kidney cells (HEK-293) and HepG2 cells were grown in Dulbecco's Modified Eagle's Medium supplemented with 10% fetal bovine serum. The cells were dispersed into 96-well plates (8000 cells/well in 100 μl ). Wells with media but no cells were used as blanks. After 24 hours, varying concentrations of C12-PRP, colistin and Adriamycin® were added to the wells containing cells but also the blanks. After incubation of the cells with the compounds for 48 hours, the CyQuant Direct detection reagent was added to the wells. Plates were incubated at 37° C. for 1 hour and the fluorescence (Excitation 480nm/Emission 535 nm) was read using a SpectraMax M2e (Molecular Devices, USA). As a positive control, CyQuant Direct detection reagent was added to a plate with untreated cells, incubated for 1 hour followed by fluorescence reading. The number of cells in each well was determined by detaching the cells by trypsin followed by counting on a CoulterZM counter to ensure an approximate equal number of cells per well.

In the case of CCCCCCCCCCCCCCCC(=O)N1CCC[C@H]1C(=O)N[C@@H](CCCNC(=N)N)C(=O)N1CCC[C@H]1C(=O)N[C@@H](CCCNC(=N)N)C(=O)N1CCC[C@H]1C(=O)N[C@@H](CCCNC(=N)N)C(=O)N1CCC[C@H]1C(N)=O [Compound C16-PRP, CH3(CH2)14CO-PRPRPRP-NH2] (Palmitoyl-PRPRPRP-NH2), the MIC range (Gram-positive bacteria) is reported as 4 to 16 µg/mL, the MIC (S. aureus ATCC 29213) is reported as 8 µg/mL and the MIC [1] is reported as 8 µg/mL. For the same molecule, the MIC (E. coli ATCC 25922) was 16 µg/mL, the MIC (K. pneumoniae ATCC 13883) was 64 µg/mL and the MIC [2] was 64 µg/mL. For the same molecule, the MIC [3] was 16 µg/mL, the MIC [4] was 32 µg/mL and the MIC [5] was 64 µg/mL. For the same molecule, the MIC [6] was 16 µg/mL, the MIC (P. aeruginosa ATCC 27853) was 32 µg/mL and the MIC [7] was 32 µg/mL. For the same molecule, the MIC [8] was 4 µg/mL, the MIC (E. faecalis ATCC 29212) was 16 µg/mL and the MIC (E. faecium ATCC 27270) was 8 µg/mL. The MIC [9] was 8 µg/mL, the MIC [10] was 8 µg/mL and the MIC [11] was 8 µg/mL. For the same molecule, the MIC range [12] was 8 to 16 µg/mL, the “interaction with minocycline (in words)” value [13] was “indifferent interaction” and the “interaction with rifampicin (in words)” value [13] was “indifferent interaction”. The “MHC (minimum concentration that resulted in 5% red blood cell hemolysis)” value (pig erythrocytes) was 16 µg/mL.
In the case of colistin, the IC50 [14] is reported as 1500 nM.
